Our source for the IC50 values is ChEMBL document CHEMBL1134056, “Diaryl ether inhibitors of farnesyl-protein transferase” (Bioorg Med Chem Lett, 2001).

Molecules are shown by their SMILES.

For orientation: IC50 means the point on the concentration scale where inhibition reaches its midpoint.

Test [1] has as its target Protein farnesyltransferase (Homo sapiens, UniProt P49354+P49356). In words: Inhibition of rate of incorporation of [3H]FPP into recombinant Ras-CVIM by human farnesyltransferase. Format: protein-complex assay.
Test [2] has as its target Geranylgeranyl transferase type I (Homo sapiens, UniProt P49354+P53609). In words: Inhibition of rate of incorporation of [3H]GGPP into a biotinylated peptide corresponding to C-terminus of human Ki-Ras by human geranylgeranyl-transferase type I. In kind it is protein-complex assay.
Test [3] concerns the target Protein farnesyltransferase (Rattus norvegicus, UniProt Q02293+Q04631). In words: Displacement of radiolabeled FTI from Farnesyltransferase in cultured v-Ha-ras-transformed RAT1 cells. Format: functional, cell-based.

In the case of `CC(=O)c1cccc(Oc2cc(Cn3ccnc3)ccc2C#N)c1`, the IC50 in test [1] stood at 45 nM; in test [2], 6100 nM.

`N#Cc1ccc(Cn2ccnc2)cc1OCCCc1ccccc1`: the IC50 was determined as 200 nM in test [1] and 3100 nM in test [2].

On to `COc1ccc(Oc2cc(Cn3ccnc3)ccc2C#N)cc1`, for which the IC50 in test [1] was determined as 290 nM; in test [2] it was 3500 nM.

In the case of `N#Cc1cccc(Oc2cc(Cn3ccnc3)ccc2C#N)c1`, the IC50 came to 130 nM in test [1] and 16000 nM in test [2].

`N#Cc1ccc(Cn2ccnc2)cc1Oc1cccc(Cc2ccccc2)c1`: the IC50 in test [1] was found to be 230 nM; in test [2], 600 nM.

Take `N#Cc1ccc(Cn2ccnc2)cc1Oc1cccc(-c2ccccc2)c1`: the IC50 in test [1] turned out to be 9.6 nM; in test [2], 520 nM.

Take `N#Cc1ccc(Cn2ccnc2)cc1Oc1ccc(-c2ccccc2)cc1`: the IC50 in test [2] was found to be 1300 nM.

As to `CCC1(c2cccc(Oc3cc(Cn4ccnc4)ccc3C#N)c2)CCCCN(C)C1=O` (stereo not drawn), the IC50 in test [3] turned out to be 4.9 nM; in test [1], 2.9 nM; in test [2] it was 7.1 nM.

Take `COc1cccc(Oc2cc(Cn3ccnc3)ccc2C#N)c1`: the IC50 in test [1] was 40 nM; in test [2] it was 3500 nM.

As to `N#Cc1ccc(Cn2ccnc2)cc1S(=O)(=O)c1ccc(Cl)cc1Cl`, the IC50 was 5400 nM in test [1] and 8800 nM in test [2].

As to `N#Cc1ccc(Cn2ccnc2)cc1Oc1ccc(Cl)cc1`, the IC50 in test [1] turned out to be 38 nM; in test [2] it was 920 nM.

Turning to `CC(C)(C)c1cccc(Oc2cc(Cn3ccnc3)ccc2C#N)c1`, the IC50 was determined as 27 nM in test [1] and 520 nM in test [2].

With `N#Cc1ccc(Cn2ccnc2)cc1OCCCCc1ccccc1`, the IC50 was 440 nM in test [1] and 380 nM in test [2].

For the compound `C#Cc1cccc(Oc2cc(Cn3ccnc3)ccc2C#N)c1`, the IC50 in test [1] turned out to be 27 nM; in test [2], 2600 nM.

Consider `COc1ccc(OC)c(Oc2cc(Cn3ccnc3)ccc2C#N)c1`, for which the IC50 came to 100 nM in test [1] and 18000 nM in test [2].

With `N#Cc1ccc(Cn2ccnc2)cc1Sc1ccc(Cl)cc1Cl`, the IC50 is 96 nM in test [3], below 1 nM in test [1] and 23 nM in test [2].

In the case of `N#Cc1ccc(Cn2ccnc2)cc1Oc1ccccc1Cl`, the IC50 was 41 nM in test [1] and 1100 nM in test [2].

In the case of `N#Cc1ccc(Cn2ccnc2)cc1Oc1ccc(Cl)cc1Cl`, the IC50 in test [3] amounted to 260 nM; in test [1], 8 nM; in test [2], 280 nM.

As to `N#Cc1ccc(Cn2ccnc2)cc1Oc1cccc2ccccc12`, the IC50 in test [1] came out at 150 nM; in test [2] it was 3200 nM.

For the compound `N#Cc1ccc(Cn2ccnc2)cc1Oc1cccc(C(=O)Nc2ccccc2)c1`, the IC50 amounted to 38 nM in test [1] and 3300 nM in test [2].

Take `N#Cc1ccc(Cn2ccnc2)cc1[S+]([O-])c1ccc(Cl)cc1Cl` (stereo not drawn): the IC50 in test [1] is 390 nM; in test [2] it was 2000 nM.

In the case of `Cc1ncn(Cc2ccc(C#N)cc2)c1CN1CC(=O)N(c2cccc(Cl)c2)CC1CCS(C)(=O)=O` (stereo not drawn), in test [1], the IC50 is 475 nM.

Regarding `N#Cc1ccc(Cn2ccnc2)cc1Oc1cccc(Cl)c1`, the IC50 in test [1] was 53 nM; in test [2], 3200 nM.

With `COc1cccc(Oc2cc(Cn3ccnc3)ccc2C#N)c1OC`, the IC50 in test [3] worked out at 14 nM; in test [1], 1 nM; in test [2], 15000 nM.

In the case of `N#Cc1ccc(Cn2ccnc2)cc1OCCc1ccccc1`, the IC50 was 860 nM in test [1] and 7000 nM in test [2].

With `N#Cc1ccc(Cn2ccnc2)cc1Oc1cccc(Br)c1`, the IC50 in test [1] was 38 nM; in test [2], 2900 nM.

Take `COc1ccccc1Oc1cc(Cn2ccnc2)ccc1C#N`: the results for the IC50 in test [1] and in test [2] were 340 nM and 28000 nM, respectively.

As for `N#Cc1ccc(Cn2ccnc2)cc1Oc1cccc(C(=O)c2ccccc2)c1`, the half-inhibitory concentration (IC50) is 13 nM in test [1] and 840 nM in test [2].

For `N#Cc1ccc(Cn2ccnc2)cc1Oc1cccc(F)c1`, the IC50 was 180 nM in test [1] and 4400 nM in test [2].

As to `N#Cc1ccc(Cn2ccnc2)cc1OCCc1ccc(-c2ccccc2)cc1`, the IC50 stood at 86 nM in test [1] and 12000 nM in test [2].

With `N#Cc1ccc(Cn2ccnc2)cc1Oc1ccccc1`, the IC50 was 230 nM in test [1] and 3700 nM in test [2].

`N#Cc1ccc(Cn2ccnc2)cc1Oc1ccccc1-c1ccccc1`: the figures for the IC50 in test [1] and in test [2] were 110 nM and 740 nM, respectively.

Consider `N#Cc1ccc(Cn2ccnc2)cc1Oc1cccc(Oc2ccccc2)c1`, for which the IC50 in test [1] stood at 14 nM; in test [2], 280 nM.

On to `N#Cc1ccc(Cn2ccnc2)cc1Oc1ccc2ccccc2c1`, for which the IC50 in test [1] came to 1.1 nM; in test [2] it was 520 nM.

Regarding `N#Cc1ccc(Cn2ccnc2)cc1Oc1cccc(NC(=O)c2ccccc2)c1`, the IC50 in test [1] came out at 38 nM; in test [2] it was 2000 nM.

`N#Cc1ccc(Cn2ccnc2)cc1OCc1ccccc1`: the figures for the IC50 in test [1] and in test [2] were 1500 nM and 6800 nM, respectively.

In the case of `N#Cc1ccc(Cn2ccnc2)cc1Oc1cccc(Nc2ccccc2)c1`, the IC50 in test [1] stood at 17 nM; in test [2], 630 nM.

In the case of `N#Cc1ccc(Cn2ccnc2)cc1Oc1ccc(Cl)c(Cl)c1`, the IC50 in test [1] worked out at 28 nM; in test [2] it was 1200 nM.
